The text below walks through data of PubChem BioAssay AID2060904 (Molecular Pharmacology Branch, DTP, NCI, 2025).

The test system of the experiment is 349418-098-R-PDC complex spheroid viability. The experiment can be described thus: Anticancer human tumor 349418-098-R-PDC patient-derived lung adenocarcinoma cell line growth inhibition [RAS]. The note with it: for viability, T/C: stronger effect = lower value. From the text:
RAS pathway inhibitors in Combinations in Complex Spheroids
A high-throughput screen of multi-cell type tumor spheroids was designed to identify active combinations of RAS pathway inhibitors and targeted small molecules. Complex spheroids include a stromal component modeled by human endothelial cells (HUVEC) and fibroblasts modeled by human mesenchymal stem cells (MSCs). The concentration ranges selected for each drug and investigational agent were based upon clinically achievable concentrations if the clinical Cmax of the agent was known.
Compounds. The drugs and investigational agents: abemaciclib (NSC768073), cobimetinib (NSC768068), divarasib (GDC6063, NSC841802), docetaxel (NSC628503), GDC-1971 (RLY-1971, NSC841576), gemcitabine (NSC613327), inavolisib (NSC800729), ipatasertib (NSC767898), KB-0742 (NSC834161), MRTX-1133 (NSC836407), osimertinib (NSC779217), RMC-4630 (NSC839698), RMC-6236 (NSC851965), RMC-6291 (NSC852671), Ro-3306 (NSC812927), sapanisertib (NSC764658), SN-38 (NSC673596), staurosporine (NSC755774), SY5609 (NSC837396), and tovorafenib (DAY101, NSC766906), were obtained from the National Cancer Institute (NCI) Developmental Therapeutics Program Chemical Repository. The FDA-approved anticancer drug set is available from the NCI Developmental Therapeutics Program. […] The stock solutions were prepared in dimethyl sulfoxide (DMSO, Sigma-Aldrich, St. Louis, MO, cat. D2650) at 800-fold the tested concentration and stored at -70 degrees C prior to their use. All drugs and investigational agents were tested over a range starting from a high concentration at or near the clinical Cmax and decreasing in half-log increments. If the clinical Cmax for an agent had not been determined, the highest concentration tested was 10 microM.
Cell Culture. All cells were maintained in an incubator at 37 degrees C and 5% CO2 with 95% humidity. The PDC lines were cultured according to standard operating procedures established by the NCI PDMR. All PDCs were thawed and cultured in Matrigel-coated flasks prepared with a working solution of 1X Ham's F-12 nutrient mix, without supplementation (Invitrogen, Waltham, MA, cat. 11765054), 100 U/mL penicillin-streptomycin (Invitrogen, cat. 15140122), and 2.5% Matrigel (Corning Inc., Corning, NY, cat. 354248) for the first three passages. The 362531-283-R-J2-PDC and 782815-120-R-J1-PDC lines were cultured in 6C/Colon 1B media, which includes advanced DMEM/F-12 (Thermo Fisher Scientific, cat. 12634028), 10 mM HEPES (Thermo Fisher Scientific, cat. 15630080), 1X GlutaMAX supplement (Thermo Fisher Scientific, cat. 35050061), 0.1 mg/mL primocin (InvivoGen, San Diego, CA, cat. ant-pm-2), 10% defined fetal bovine serum, heat inactivated (HyClone Laboratories Inc., Logan, UT, cat. SH30070.03HI), 50% L-WRN conditioned media (ATCC, cat. CRL-3276), 1.25 mM N-Acetyl-L-cysteine (Sigma-Aldrich, cat. A9165), 10 mM nicotinamide (Sigma-Aldrich, cat. N0636), 1X B-27 supplement (Thermo Fisher Scientific, cat. 17504044), 1X N-2 supplement (Thermo Fisher Scientific, cat. 17502048), 50 ng/mL human EGF (Thermo Fisher Scientific, cat. PHG0311), and 10 microM Y-27632 dihydrochloride (Tocris Bioscience, cat. 1254). The K12877-001-R-J1-PDC line was cultured in 6I media, which includes all 6C/Colon 1B media plus 10 ng/mL human FGF-10 (PeproTech, cat. 100-26), 1 ng/mL human FGF-2 (PeproTech, cat. 100-18B), 1 µM prostaglandin E2 (Tocris Bioscience, cat. 2296), […] hydrocortisone (Sigma-Aldrich, cat. H4001), and […] bovine insulin (Sigma-Aldrich, cat. I6634). The K86415-001-R-J1-PDC line was cultured in 6D media, which includes all 6C/Colon 1B media components minus the L-WRN conditioned media. The 485176-168-R4-J1-PDC was cultured in PANC media, which includes all 6C/Colon 1B media plus 100 ng/mL human FGF-10 (PeproTech, cat. 100-26), 500 nM SB-431542 (Selleckchem, cat. S1067), and 10 nM gastrin (Tocris Bioscience, cat. 3006). […]
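Note: spheroids exposed to compound for seven days before viability readout.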

As for `C=CC(=O)N1CCN(c2nc(OCC3CCCN3C)nc3c(F)c(-c4nc(N)cc(C)c4C(F)(F)F)c(Cl)cc23)C(C)C1` (stereo unspecified), the viability, T/C runs as follows: (compound 0.1 µM) 102% [middle of 12 runs]; (compound 0.316 µM) 95.8% [middle of 12 runs]; (compound 1 µM) 85.1% [middle of 12 runs]. Further, the 50% inhibitory concentration (IC50) is, setting by setting: (compound alone, run of 06/10/2024) over 1000 nM; (curve of compound) over 1000 nM.
With `CC(C)NCC(C(=O)N1CCN(c2ncnc3c2C(C)CC3O)CC1)c1ccc(Cl)cc1` (stereo unspecified), the viability, T/C is, setting by setting: (compound 0.1 µM) 81.7% [middle of 4 runs]; (compound 0.316 µM) 62.2% [middle of 4 runs]; (compound 1 µM) 37.9% [middle of 4 runs]; (compound 3.16 µM) 18% [middle of 4 runs]; (compound 10 µM) 12.6% [middle of 4 runs]. Moreover, where the note is “curve of compound”, the IC50 is 476 nM [middle of 4 runs].
`C[C@@H](NC(=O)c1ncnc(N)c1Cl)c1ncc(C(=O)Nc2cc(C(F)(F)F)c(Cl)cn2)s1`: the viability, T/C is, setting by setting: (compound 0.1 µM) 109% [middle of 4 runs]; (compound 0.316 µM) 91.3% [middle of 4 runs]; (compound 1 µM) 64.9% [middle of 4 runs]; (compound 10 µM) 32% [middle of 4 runs]. The IC50 (curve of compound) was 2.13 µM [middle of 4 runs].

What is called viability, T/C is the result in the treated group divided by that in the control group, in per cent. One may read the IC50 as the concentration that gives 50% inhibition.
